A short description of one data set: in vitro. Particulars: male, C57BL/6J, mouse, blood.
Another data set addresses T1, HMGB1/MD-2 binding (Homo sapiens, UniProt Q9Y6Y9).
T1 construct: purchased R&D Systems 1787-MD
T1 sequence (Q9Y6Y9 17-160 limits assumed): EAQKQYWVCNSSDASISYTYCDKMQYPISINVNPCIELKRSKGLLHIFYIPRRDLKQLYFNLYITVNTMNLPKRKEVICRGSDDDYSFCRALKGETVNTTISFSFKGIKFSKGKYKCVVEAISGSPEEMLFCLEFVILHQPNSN
In words: SPR HMGB1/MD-2 binding inhibition assay. Particulars: immobilized disulfide HMGB1, MD-2 0.25 µM.

Data set [1] has as its target T2, Human B2 (h) receptor (B2R) (Homo sapiens, UniProt P30411).
T2 construct: host or cells: CHO cells
T2 sequence (P30411 1-391): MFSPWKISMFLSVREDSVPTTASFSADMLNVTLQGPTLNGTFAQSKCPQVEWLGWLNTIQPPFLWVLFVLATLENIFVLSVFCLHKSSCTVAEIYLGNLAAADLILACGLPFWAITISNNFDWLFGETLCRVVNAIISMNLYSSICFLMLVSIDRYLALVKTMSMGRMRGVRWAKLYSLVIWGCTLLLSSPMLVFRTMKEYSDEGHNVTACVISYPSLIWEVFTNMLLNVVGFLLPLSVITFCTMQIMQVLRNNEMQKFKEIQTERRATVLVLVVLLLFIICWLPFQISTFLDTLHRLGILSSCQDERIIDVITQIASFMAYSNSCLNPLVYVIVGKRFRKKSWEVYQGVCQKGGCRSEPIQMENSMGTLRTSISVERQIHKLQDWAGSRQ
The data set is described as follows: Human B2 (h) (agonist radioligand) receptor binding assay, [3H]bradykinin displacement. Particulars: Eurofins Cerep report. From the text: The data was collected by CRO Eurofins Cerep (France) and the result is attached as an additional data file. B2R radioligand agonist binding displacement assay for determination of IC-50.
Test compounds (FI-U / [azaP2, azaF8-BK (70), FI-2V / azaF8-BK (68), and FI-8G / azaP2-BK (63)) were supplied to Eurofins in a blinded manner and run at five concentrations to determine the IC-50’s. Standard company control test compounds were used for assay validation. Experimental assays achieved inhibition of more than 50% and were considered to represent significant effects of the test compounds.
(B2(h)) was used as the agonist for B2R receptor binding. The results are expressed as a percent of control specific binding (measured specific binding /control specific binding)*100, and as a percent inhibition of control specific binding (100 minus (measured specific binding/ control specific binding)*100) obtained in the presence of the test compounds. The IC50 values (concentration causing a half-maximal inhibition of control specific binding) and Hill coefficients (nH) were determined by non-linear regression analysis of the competition curves generated with mean replicate values using Hill equation curve fitting Y=D+[ A-D / 1+(C/C50) nH] where Y = specific binding, A = left asymptote of the curve, D = right asymptote of the curve, C = compound concentration, C50 = IC50, and nH = slope factor. This analysis was performed using software developed at Cerep (Hill software) and validated by comparison with data generated by the commercial software SigmaPlot® 4.0 for […]
The inhibition constants (Ki) were calculated using the Cheng Prusoff equation. Ki=IC50/(1+L/Kd) where L = concentration of radioligand in the assay, and Kd = affinity of the radioligand for the receptor. A scatchard plot is used to determine the Kd. […]
9.1. Experimental Conditions
9.1.1. In Vitro Pharmacology: Binding Assays
Assay Source Ligand Conc. Kd Non Specific Incubation Detection Bibl.
(agonist recombinant (1 µM) RT counting
9.2. Analysis and expression of results
9.2.1. In Vitro Pharmacology: Binding Assays
The results are expressed as a percent of control specific binding measured specific binding *100 […]
and as a percent inhibition of control specific binding
100-( measured specific binding *100) […]
obtained in the presence of the test compounds.
The IC50 values (concentration causing a half-maximal inhibition of control specific binding) and Hill coefficients (nH) were determined by non-linear regression analysis of the competition curves generated with mean replicate values using Hill equation […]
where Y = specific binding, A = left asymptote of the curve, D = right asymptote of the curve, C = compound concentration, C50 = IC50, and nH = slope factor. This analysis was performed using software developed at Cerep (Hill software) and validated by […]
The inhibition constants (Ki ) were calculated using the Cheng Prusoff equation where L = concentration of radioligand in the assay, and KD = affinity of the radioligand for the receptor. A scatchard plot is used to […]

The record followed here is PMC9705435, “Thiocarbazate building blocks enable the construction of azapeptides for rapid development of therapeutic candidates” (Nature Communications, 2022).

Values joined by “and” are separate entries in the source; they are usually repeats but may differ in a detail not shown here. Equal entries are not always repeated. Numbered stars: 1 amine (or outer) side, 2 acyl side, 3 side chain; on linkers, the order of the positions; unused ones are H or OH. Square brackets hold non-standard residues; d marks the D form. Peptide text beside a SMILES is read from it. * marks the point of attachment. azaPhe = O=C(N(Cc1ccccc1)N[*:1])[*:2]; azaPro = O=C(N1CCCN1[*:1])[*:2]; X1 = N=C(N)NCCCN(N)C(=O)*; azaGly = NNC(=O)O Where only a bound is given, the exact number is not on record here.

`NC(=O)[C@H](CCC(=O)O)NC(=O)[C@H](CO)NC(=O)[C@H](CO)NC(=O)N(N)Cc1ccccc1` [Compound 52, azaF^1SSE-NH2]: the half-life – broadly, how long it takes for the measured level to halve – in “in vitro” was above 120 min. In addition, the IC50 – broadly, the concentration needed to halve the response being measured – on HMGB1/MD-2 binding came out at 249 nM.
In “in vitro” (Ex-vivo stability t 1/2), `NC(=O)N(CCC(=O)O)NC(=O)[C@H](CO)NC(=O)[C@H](CO)NC(=O)[C@@H](N)Cc1ccccc1` [Compound 53, FSSazaE^4-NH2] came in with a half-life of 2.6 ± 0.11 min. For the same compound, the IC50 at HMGB1/MD-2 binding was 397 nM.
Turning to `NN(Cc1ccccc1)C(=O)N[C@@H](CO)C(=O)N[C@@H](CO)C(=O)N[C@@H](CCC(=O)O)C(=O)O` [Compound 54, azaF^1SSE-OH], the half-life in “in vitro” was above 120 min. The same compound yielded an IC50 on HMGB1/MD-2 binding of 127 nM.
In the case of `NC(=O)CC[C@H](NC(=O)[C@H](CO)NC(=O)[C@H](CO)NC(=O)N(N)Cc1ccccc1)C(=O)O` [Compound 55, azaF^1SSQ-OH], the half-life in the data set “in vitro” stood at 24.4 ± 1.6 min. This compound also had an IC50 at HMGB1/MD-2 binding of 159 nM.
For the compound `NC(=O)CC[C@H](NC(=O)[C@H](CO)NC(=O)[C@H](CO)NC(=O)N(N)Cc1ccccc1)C(N)=O` [Compound 56, azaF^1SSQ-NH2], the half-life in the data set “in vitro” was above 120 min. The half-inhibitory concentration (IC50) on HMGB1/MD-2 binding was 349 nM.
The compound `N=C(N)NCCC[C@H](NC(=O)[C@H](Cc1ccccc1)NC(=O)[C@@H]1CCCN1C(=O)[C@H](CO)NC(=O)[C@H](Cc1ccccc1)NC(=O)CNC(=O)[C@@H]1CCCN1C(=O)[C@@H]1CCCN1C(=O)N(N)CCCNC(=N)N)C(=O)O` [Compound 62] (X1-PPGFSPFR-OH) yielded a half-life in “in vitro” of 2.46 ± 0.05 min.
On the same count and under the same terms, the value for `N=C(N)NCCC[C@H](NC(=O)[C@H](Cc1ccccc1)NC(=O)[C@@H]1CCCN1C(=O)[C@H](CO)NC(=O)[C@H](Cc1ccccc1)NC(=O)CNC(=O)N1CCCN1C(=O)[C@@H]1CCCN1C(=O)[C@@H](N)CCCNC(=N)N)C(=O)O` [Compound 64, RPazaP^3GFSPFR] was 2.63 ± 0.25 min.
Same read-out and setting: next, `N=C(N)NCCC[C@H](NC(=O)[C@H](Cc1ccccc1)NC(=O)[C@@H]1CCCN1C(=O)[C@H](CO)NC(=O)[C@H](Cc1ccccc1)NC(=O)NNC(=O)[C@@H]1CCCN1C(=O)[C@@H]1CCCN1C(=O)[C@@H](N)CCCNC(=N)N)C(=O)O` [Compound 65, RPPazaG^4FSPFR] (H-RPP[azaGly]FSPFR-OH; N-terminus and C-terminus assumed): 4.33 ± 1.3 min; `N=C(N)NCCC[C@H](NC(=O)[C@H](Cc1ccccc1)NC(=O)[C@@H]1CCCN1C(=O)[C@H](CO)NC(=O)N(Cc1ccccc1)NC(=O)CNC(=O)[C@@H]1CCCN1C(=O)[C@@H]1CCCN1C(=O)[C@@H](N)CCCNC(=N)N)C(=O)O` [Compound 66, RPPGazaF^5SPFR] (H-RPPG[azaPhe]SPFR-OH; N-terminus and C-terminus assumed): 14.7 ± 1.6 min; `N=C(N)NCCC[C@H](NC(=O)[C@H](Cc1ccccc1)NC(=O)N1CCCN1C(=O)[C@H](CO)NC(=O)[C@H](Cc1ccccc1)NC(=O)CNC(=O)[C@@H]1CCCN1C(=O)[C@@H]1CCCN1C(=O)[C@@H](N)CCCNC(=N)N)C(=O)O` [Compound 67, RPPGFSazaP^7FR] (H-RPPGFS[azaPro]FR-OH): 2.38 ± 0.03 min.
Compound `N=C(N)NCCC[C@H](N)C(=O)N1CCC[C@H]1C(=O)N1CCC[C@H]1C(=O)NCC(=O)N[C@@H](Cc1ccccc1)C(=O)N[C@@H](CO)C(=O)N1CCC[C@H]1C(=O)N[C@@H](Cc1ccccc1)C(=O)NN(CCCNC(=N)N)C(=O)O` [Compound 69] had a half-life in the data set “in vitro” of 42.6 ± 0.8 min.
Still for that read-out and setting: next, `N=C(N)NCCC[C@H](NC(=O)N(Cc1ccccc1)NC(=O)[C@@H]1CCCN1C(=O)[C@H](CO)NC(=O)N(Cc1ccccc1)NC(=O)CNC(=O)[C@@H]1CCCN1C(=O)[C@@H]1CCCN1C(=O)[C@@H](N)CCCNC(=N)N)C(=O)O` [Compound 71, RPPGazaF^5SPazaF^8R] (H-RPPG[azaPhe]SP[azaPhe]R-OH; N-terminus and C-terminus assumed): 106 ± 1.8 min.
Consider `N=C(N)NCCC[C@@H](N)C(=O)N[C@@H](CCCNC(=N)N)C(=O)N1CCC[C@H]1C(=O)N1C[C@H](O)C[C@H]1C(=O)NCC(=O)N[C@@H](Cc1ccccc1)C(=O)N[C@@H](CO)C(=O)N[C@H](Cc1ccccc1)C(=O)N[C@@H](Cc1ccccc1)C(=O)N[C@@H](CCCNC(=N)N)C(=O)O` [NPC 567, reference compound], for which the “nH (Hill coefficient)” value in data set [1] is 0.6 and 0.9.
